≈ marks a conversion by molar mass, not a printed value.
How the values were obtained:
Type in all cases: functional
Staphylococcus aureus [1] = test: Colony forming units of Staphylococcus aureus intramammary infection (IMI) model was determined at a dose of 15 mg/kg
Pasteurella multocida = test: Minimum inhibitory concentration against Pasteurella multocida
Staphylococcus aureus [2] = test: Minimum inhibitory concentration against Staphylococcus aureus
Escherichia coli = test: Minimum inhibitory concentration against Escherichia coli
Staphylococcus aureus [3] = test: Effective dose required to inhibit Staphylococcus aureus intraperitoneal (IP) infection model

Compound | Log CFU (Staphylococcus aureus [1]) | MIC (Pasteurella multocida) [µg/mL] | MIC (Staphylococcus aureus [2]) [µg/mL] | MIC (Escherichia coli) [µg/mL] | ED50 (Staphylococcus aureus [3]) [mg/kg]
CC[C@H]1OC(=O)[C@H](C)[C@H]2OC3(CCN(C(=O)c4ccnc5ccccc45)CC3)O[C@](C)(C[C@@H](C)CN(C)[C@H](C)[C@@H](O)[C@]1(C)O)[C@H](O[C@@H]1O[C@H](C)C[C@H](N(C)C)[C@H]1O)[C@H]2C | 2.5 | 0.1 (≈ 0.121 µM) | 0.39 (≈ 0.472 µM) | 6.25 (≈ 7.56 µM) | 20
CC[C@H]1OC(=O)[C@H](C)[C@H]2OC3(CCN(C(=O)c4ccccn4)CC3)O[C@](C)(C[C@@H](C)CN[C@H](C)[C@@H](O)[C@]1(C)O)[C@H](O[C@@H]1O[C@H](C)C[C@H](N(C)C)[C@H]1O)[C@H]2C | 3.5 | 0.1 (≈ 0.131 µM) | 0.78 (≈ 1.02 µM) | 1.56 (≈ 2.04 µM) | 7.6
CC[C@H]1OC(=O)[C@H](C)[C@H]2OC3(CCN(CCc4ccc5ccccc5n4)CC3)O[C@](C)(C[C@@H](C)CN[C@H](C)[C@@H](O)[C@]1(C)O)[C@H](O[C@@H]1O[C@H](C)C[C@H](N(C)C)[C@H]1O)[C@H]2C | 5.2 | 0.03 (≈ 0.0369 µM) | 0.2 (≈ 0.246 µM) | 0.78 (≈ 0.959 µM) | 22
CC[C@H]1OC(=O)[C@H](C)[C@H]2OC3(CCN(C(=O)c4ccc5ccccc5n4)CC3)O[C@](C)(C[C@@H](C)CN[C@H](C)[C@@H](O)[C@]1(C)O)[C@H](O[C@@H]1O[C@H](C)C[C@H](N(C)C)[C@H]1O)[C@H]2C | 1.9 | 0.05 (≈ 0.0615 µM) | 0.2 (≈ 0.246 µM) | 1.56 (≈ 1.92 µM) | 14
CC[C@H]1OC(=O)[C@H](C)[C@H]2OC3(CCN(C(=O)c4ccc[nH]4)CC3)O[C@](C)(C[C@@H](C)CN[C@H](C)[C@@H](O)[C@]1(C)O)[C@H](O[C@@H]1O[C@H](C)C[C@H](N(C)C)[C@H]1O)[C@H]2C | 4.7 | 0.05 (≈ 0.0666 µM) | 0.78 (≈ 1.04 µM) | 0.78 (≈ 1.04 µM) | 19
CC[C@H]1OC(=O)[C@H](C)[C@H]2OC3(CCN(C(=O)c4cccc(OC)c4)CC3)O[C@](C)(C[C@@H](C)CN[C@H](C)[C@@H](O)[C@]1(C)O)[C@H](O[C@@H]1O[C@H](C)C[C@H](N(C)C)[C@H]1O)[C@H]2C | 5.6 | 0.1 (≈ 0.126 µM) | 0.78 (≈ 0.985 µM) | 3.13 (≈ 3.95 µM) | 20
CC[C@H]1OC(=O)[C@H](C)[C@H]2OC3(CCN(Cc4cccnc4)CC3)O[C@](C)(C[C@@H](C)CN[C@H](C)[C@@H](O)[C@]1(C)O)[C@H](O[C@@H]1O[C@H](C)C[C@H](N(C)C)[C@H]1O)[C@H]2C | 1.3 | 0.03 (≈ 0.0401 µM) | 0.39 (≈ 0.521 µM) | 0.78 (≈ 1.04 µM) | < 5
CC[C@H]1OC(=O)[C@H](C)[C@H]2OC3(CCN(C(=O)c4ccnc5ccccc45)CC3)O[C@](C)(C[C@@H](C)CN[C@H](C)[C@@H](O)[C@]1(C)O)[C@H](O[C@@H]1O[C@H](C)C[C@H](N(C)C)[C@H]1O)[C@H]2C | 1.9 | 0.1 (≈ 0.123 µM) | 0.39 (≈ 0.48 µM) | 6.25 (≈ 7.69 µM) | 7.6
CC[C@H]1OC(=O)[C@H](C)[C@H]2OC3(CCN(C(=O)c4cnccn4)CC3)O[C@](C)(C[C@@H](C)CN[C@H](C)[C@@H](O)[C@]1(C)O)[C@H](O[C@@H]1O[C@H](C)C[C@H](N(C)C)[C@H]1O)[C@H]2C | 1.3 | 0.1 (≈ 0.131 µM) | 1.56 (≈ 2.04 µM) | 1.56 (≈ 2.04 µM) | 6.1
CC[C@H]1OC(=O)[C@H](C)[C@H]2OC3(CCN(C(=O)c4ccoc4)CC3)O[C@](C)(C[C@@H](C)CN[C@H](C)[C@@H](O)[C@]1(C)O)[C@H](O[C@@H]1O[C@H](C)C[C@H](N(C)C)[C@H]1O)[C@H]2C | 2.6 | 0.05 (≈ 0.0665 µM) | 0.78 (≈ 1.04 µM) | 0.78 (≈ 1.04 µM) | 11
CC[C@H]1OC(=O)[C@H](C)[C@H]2OC3(CCN(Cc4ccccn4)CC3)O[C@](C)(C[C@@H](C)CN[C@H](C)[C@@H](O)[C@]1(C)O)[C@H](O[C@@H]1O[C@H](C)C[C@H](N(C)C)[C@H]1O)[C@H]2C | 1.1 | 0.03 (≈ 0.0401 µM) | 0.6 (≈ 0.801 µM) | 0.2 (≈ 0.267 µM) | < 5
CC[C@H]1OC(=O)[C@H](C)[C@H]2OC3(CCN(C(=O)c4cccnc4)CC3)O[C@](C)(C[C@@H](C)CN[C@H](C)[C@@H](O)[C@]1(C)O)[C@H](O[C@@H]1O[C@H](C)C[C@H](N(C)C)[C@H]1O)[C@H]2C | 3.2 | 0.1 (≈ 0.131 µM) | 1.56 (≈ 2.04 µM) | 3.13 (≈ 4.1 µM) | 6.4
CC[C@H]1OC(=O)[C@H](C)[C@H]2OC3(CCN(C(=O)c4cnc5ccccc5c4)CC3)O[C@](C)(C[C@@H](C)CN[C@H](C)[C@@H](O)[C@]1(C)O)[C@H](O[C@@H]1O[C@H](C)C[C@H](N(C)C)[C@H]1O)[C@H]2C | 3.3 | 0.1 (≈ 0.123 µM) | 0.39 (≈ 0.48 µM) | 3.13 (≈ 3.85 µM) | 13
CC[C@H]1OC(=O)[C@H](C)[C@H]2OC3(CCN(C(=O)c4ccccc4)CC3)O[C@](C)(C[C@@H](C)CN[C@H](C)[C@@H](O)[C@]1(C)O)[C@H](O[C@@H]1O[C@H](C)C[C@H](N(C)C)[C@H]1O)[C@H]2C | 2.9 | 0.1 (≈ 0.131 µM) | 0.78 (≈ 1.02 µM) | 1.56 (≈ 2.05 µM) | 20
CC[C@H]1OC(=O)[C@H](C)[C@H]2OC3(CCN(CCc4ccc(OC)cc4)CC3)O[C@](C)(C[C@@H](C)CN(C)[C@H](C)[C@@H](O)[C@]1(C)O)[C@H](O[C@@H]1O[C@H](C)C[C@H](N(C)C)[C@H]1O)[C@H]2C | 9.7 | 0.03 (≈ 0.0372 µM) | 0.39 (≈ 0.484 µM) | 0.39 (≈ 0.484 µM) | > 20
CC[C@H]1OC(=O)[C@H](C)[C@H]2OC3(CCN(C(=O)c4ccco4)CC3)O[C@](C)(C[C@@H](C)CN[C@H](C)[C@@H](O)[C@]1(C)O)[C@H](O[C@@H]1O[C@H](C)C[C@H](N(C)C)[C@H]1O)[C@H]2C | 0.4 | 0.05 (≈ 0.0665 µM) | 0.78 (≈ 1.04 µM) | 1.56 (≈ 2.07 µM) | 12
CC[C@H]1OC(=O)[C@H](C)[C@H]2OC3(CCN(C(=O)c4cccc(O)n4)CC3)O[C@](C)(C[C@@H](C)CN[C@H](C)[C@@H](O)[C@]1(C)O)[C@H](O[C@@H]1O[C@H](C)C[C@H](N(C)C)[C@H]1O)[C@H]2C | 9.7 | 0.3 (≈ 0.385 µM) | 3.13 (≈ 4.02 µM) | 6.25 (≈ 8.02 µM) | 19
CC[C@H]1OC(=O)[C@H](C)[C@H]2OC3(CCN(C(=O)c4cccnc4Cl)CC3)O[C@](C)(C[C@@H](C)CN[C@H](C)[C@@H](O)[C@]1(C)O)[C@H](O[C@@H]1O[C@H](C)C[C@H](N(C)C)[C@H]1O)[C@H]2C | 4.4 | 0.1 (≈ 0.125 µM) | 1.56 (≈ 1.96 µM) | 3.13 (≈ 3.93 µM) | 9.4
CC[C@H]1OC(=O)[C@H](C)[C@H]2OC3(CCN(Cc4ccccn4)CC3)O[C@](C)(C[C@@H](C)CN(C)[C@H](C)[C@@H](O)[C@]1(C)O)[C@H](O[C@@H]1O[C@H](C)C[C@H](N(C)C)[C@H]1O)[C@H]2C | 1.9 | 0.03 (≈ 0.0393 µM) | 0.78 (≈ 1.02 µM) | 0.2 (≈ 0.262 µM) | 17
CC[C@H]1OC(=O)[C@H](C)[C@H]2OC3(CCN(C(=O)c4cccnc4)CC3)O[C@](C)(C[C@@H](C)CN(C)[C@H](C)[C@@H](O)[C@]1(C)O)[C@H](O[C@@H]1O[C@H](C)C[C@H](N(C)C)[C@H]1O)[C@H]2C | 2.6 | 0.1 (≈ 0.129 µM) | 1.56 (≈ 2.01 µM) | 3.13 (≈ 4.03 µM) | 10
CC[C@H]1OC(=O)[C@H](C)[C@H]2OC3(CCN(C(=O)c4ccccn4)CC3)O[C@](C)(C[C@@H](C)CN(C)[C@H](C)[C@@H](O)[C@]1(C)O)[C@H](O[C@@H]1O[C@H](C)C[C@H](N(C)C)[C@H]1O)[C@H]2C | 2.9 | 0.1 (≈ 0.129 µM) | 1.56 (≈ 2.01 µM) | 1.56 (≈ 2.01 µM) | 12
CC[C@H]1OC(=O)[C@H](C)[C@H]2OC3(CCN(C(=O)c4ccc5ccccc5n4)CC3)O[C@](C)(C[C@@H](C)CN(C)[C@H](C)[C@@H](O)[C@]1(C)O)[C@H](O[C@@H]1O[C@H](C)C[C@H](N(C)C)[C@H]1O)[C@H]2C | 9.7 | 0.1 (≈ 0.121 µM) | 0.39 (≈ 0.472 µM) | 6.25 (≈ 7.56 µM) | > 20
CC[C@H]1OC(=O)[C@H](C)[C@H]2OC3(CCN(CCc4ccc(Cl)cc4)CC3)O[C@](C)(C[C@@H](C)CN(C)[C@H](C)[C@@H](O)[C@]1(C)O)[C@H](O[C@@H]1O[C@H](C)C[C@H](N(C)C)[C@H]1O)[C@H]2C | 9.7 | 0.03 (≈ 0.037 µM) | 0.39 (≈ 0.481 µM) | 0.2 (≈ 0.247 µM) | > 20
CC[C@H]1OC(=O)[C@H](C)[C@@H](O[C@H]2C[C@@](C)(OC)[C@@H](O)[C@H](C)O2)[C@H](C)[C@@H](O[C@@H]2O[C@H](C)C[C@H](N(C)C)[C@H]2O)[C@](C)(O)C[C@@H](C)CN(C)[C@H](C)[C@@H](O)[C@]1(C)O [AZITHROMYCIN] | 2.8 | 0.1 (≈ 0.134 µM) | 0.2 (≈ 0.267 µM) | 1.56 (≈ 2.08 µM) | 4.1
